Measurements reported in patent US4352803A, “Novel naphthyridine derivatives, intermediates thereof, processes for preparation thereof, and use thereof” (Dainippon Pharmaceutical Co., Ltd., priority 1978, dated 1982).
In brackets after ≈: the same amount, converted by molar mass. Like-named read-outs stand apart in the source and are kept apart here.

Experiments:
[1] = system: Staphylococcus aureus 209P JC-1; assay: In vitro antibacterial activity (MIC), Staphylococcus aureus 209P JC-1; format: cell-based; details: read-out: minimum inhibitory concentration (MIC)
Excerpt: (§1) (MIC) (μg/ml) Method; Chemotherapy, 22(6), 1126 (1974)

[2] = system: Staphylococcus aureus No. 50774; assay: In vitro antibacterial activity (MIC), Staphylococcus aureus No. 50774; format: cell-based
Excerpt: as §1

[3] = system: Streptococcus faecalis P-2473; assay: In vitro antibacterial activity (MIC), Streptococcus faecalis P-2473; format: cell-based; details: Enterococcus faecalis
Excerpt: as §1

[4] = system: Streptococcus pyogenes 65A; assay: In vitro antibacterial activity (MIC), Streptococcus pyogenes 65A; format: cell-based; details: read-out: minimum inhibitory concentration (MIC)
Excerpt: as §1

[5] = system: Corynebacterium pyogenes C-21; assay: In vitro antibacterial activity (MIC), Corynebacterium pyogenes C-21; format: cell-based; details: Rhodococcus (subgen. Prescottella) equi
Excerpt: as §1

[6] = system: Escherichia coli NIHJ JC-2; assay: In vitro antibacterial activity (MIC), Escherichia coli NIHJ JC-2; format: cell-based
Excerpt: as §1

Escherichia coli P-5101 [7] = assay: In vitro antibacterial activity (MIC), Escherichia coli P-5101; format: cell-based
Excerpt: as §1

Escherichia coli P-140a = assay: In vitro antibacterial activity (MIC), Escherichia coli P-140a; format: cell-based; details: read-out: minimum inhibitory concentration (MIC)
Excerpt: as §1

[8] = system: Salmonella typhimurium 8-9; assay: In vitro antibacterial activity (MIC), Salmonella typhimurium 8-9; format: cell-based; details: Salmonella enterica, read-out: minimum inhibitory concentration (MIC)
Excerpt: as §1

[9] = system: Salmonella enteritidis No. 1891; assay: In vitro antibacterial activity (MIC), Salmonella enteritidis No. 1891; format: cell-based; details: Salmonella enterica, read-out: minimum inhibitory concentration (MIC)
Excerpt: as §1

Shigella flexneri 2a = assay: In vitro antibacterial activity (MIC), Shigella flexneri 2a; format: cell-based; details: read-out: minimum inhibitory concentration (MIC)
Excerpt: as §1

[10] = system: Shigella flexneri 4a P-330; assay: In vitro antibacterial activity (MIC), Shigella flexneri 4a P-330; format: cell-based; details: 4AP330, read-out: minimum inhibitory concentration (MIC)
Excerpt: as §1

[11] = system: Klebsiella pneumoniae No. 13; assay: In vitro antibacterial activity (MIC), Klebsiella pneumoniae No. 13; format: cell-based
Excerpt: as §1

[12] = system: Enterobacter cloacae P-2540; assay: In vitro antibacterial activity (MIC), Enterobacter cloacae P-2540; format: cell-based
Excerpt: as §1

[13] = system: Pseudomonas aeruginosa Tsuchijima; assay: In vitro antibacterial activity (MIC), Pseudomonas aeruginosa Tsuchijima; format: cell-based; details: read-out: minimum inhibitory concentration (MIC)
Excerpt: as §1

[14] = system: Pseudomonas aeruginosa No. 12; assay: In vitro antibacterial activity (MIC), Pseudomonas aeruginosa No. 12; format: cell-based
Excerpt: as §1

[15] = system: Serratia marcescens IFC 3736; assay: In vitro antibacterial activity (MIC), Serratia marcescens IFC 3736; format: cell-based
Excerpt: as §1

Proteus morganii Kono = assay: In vitro antibacterial activity (MIC), Proteus morganii Kono; format: cell-based; details: Morganella morganii, read-out: minimum inhibitory concentration (MIC)
Excerpt: as §1

Proteus mirabilis P-2381 = assay: In vitro antibacterial activity (MIC), Proteus mirabilis P-2381; format: cell-based
Excerpt: as §1

in vivo = details: mouse, in vivo, po
Description: The number of dead mice was counted after 7 days, and the value of median lethal dose (LD50, mg/kg) was calculated in accordance with the Behrens-Kaerber method.

Escherichia coli P-5101 [16] = assay: in vivo efficacy against systemic infection in mice, Escherichia coli P-5101; details: P5101, in Mus musculus, po, 168 h
Description: Male mice (ddY) weighing about 20 g
Intraperitoneal infection with (about
9 × 10^6 cells/mouse) of a bacterial
(§2) suspension in trypto-soy broth with 4% mucin.
(§3) Twice, about 5 minutes and 6 hours after infection.

[17] = system: Pseudomonas aeruginosa No. 12; assay: in vivo efficacy against systemic infection in mice, Pseudomonas aeruginosa No. 12; details: NO.12, in Mus musculus, po, 168 h
Description: Male mice (ddY) weighing about 20 g
(3) Pseudomonas aeruginosa No. 12;
(about 5 × 10^3 cells/mouse) of a bacterial
as §2, §3
The numerals in the table show ED50 (mg/kg). ED50 values were

[18] = system: Staphylococcus aureus No. 50774; assay: in vivo efficacy against systemic infection in mice, Staphylococcus aureus No. 50774; details: NO.50774, in Mus musculus, po, 336 h
Description: Male mice (ddY) weighing about 20 g
Intravenous infection with (about
5 × 10^8 cells/mouse) of a bacterial
as §3

[19] = system: Gram-positive and Gram-negative bacteria; assay: in vivo therapeutic efficacy against systemic infections in mice (overall); parameters: species or system mice (ddY)
[20] = Staphylococcus aureus, NO.50774, read-out: minimum inhibitory concentration (MIC)
[21] = P2473, read-out: minimum inhibitory concentration (MIC)
[22] = C21, read-out: minimum inhibitory concentration (MIC)
[23] = Escherichia coli, NIHJJC2, read-out: minimum inhibitory concentration (MIC)
[24] = Escherichia coli, P5101, read-out: minimum inhibitory concentration (MIC)
[25] = Klebsiella pneumoniae, NO.13, read-out: minimum inhibitory concentration (MIC)
[26] = Enterobacter cloacae, P2540, read-out: minimum inhibitory concentration (MIC)
[27] = Pseudomonas aeruginosa, NO.12, read-out: minimum inhibitory concentration (MIC)
[28] = Serratia marcescens, IFC3736, read-out: minimum inhibitory concentration (MIC)

In the case of `C=Cn1cc(C(=O)O)c(=O)c2cc(Cl)c(N3CCNCC3)nc21` [Compound 4, 6-Chloro-1,4-dihydro-4-oxo-7-(1-piperazinyl)-1-vinyl-1,8-naphthyridine-3-carboxylic acid], the MIC ([1]; Staphylococcus aureus 209P JC-1) is reported as 3.13 µg/mL (≈ 9.35 µM), the MIC ([2]; Staphylococcus aureus No. 50774, read-out: minimum inhibitory concentration (MIC)) is reported as 6.25 µg/mL (≈ 18.7 µM) and the MIC ([3]; P2473, Streptococcus faecalis P-2473, read-out: minimum inhibitory concentration (MIC)) is reported as 12.5 µg/mL (≈ 37.3 µM). For the same molecule, the MIC ([4]; Streptococcus pyogenes 65A) was 6.25 µg/mL (≈ 18.7 µM), the MIC ([5]; C21, Corynebacterium pyogenes C-21, read-out: minimum inhibitory concentration (MIC)) was 6.25 µg/mL (≈ 18.7 µM) and the MIC ([6]; NIHJJC2, Escherichia coli NIHJ JC-2, read-out: minimum inhibitory concentration (MIC)) was 0.2 µg/mL (≈ 0.597 µM). It also gave an MIC (Escherichia coli P-5101 [7]; P5101, Escherichia coli P-5101, read-out: minimum inhibitory concentration (MIC)) of 0.1 µg/mL (≈ 0.299 µM), an MIC (Escherichia coli P-140a; P140A, Escherichia coli P-140a) of 0.1 µg/mL (≈ 0.299 µM) and an MIC ([8]; Salmonella typhimurium 8-9) of 0.2 µg/mL (≈ 0.597 µM). For the same molecule, the MIC ([9]; Salmonella enteritidis No. 1891) was 0.2 µg/mL (≈ 0.597 µM), the MIC (Shigella flexneri 2a) was 0.2 µg/mL (≈ 0.597 µM) and the MIC [10] was 0.2 µg/mL (≈ 0.597 µM). For the same molecule, the MIC ([11]; Klebsiella pneumoniae No. 13, read-out: minimum inhibitory concentration (MIC)) was 0.39 µg/mL (≈ 1.17 µM), the MIC ([12]; P2540, Enterobacter cloacae P-2540, read-out: minimum inhibitory concentration (MIC)) was 0.2 µg/mL (≈ 0.597 µM) and the MIC ([13]; Pseudomonas aeruginosa Tsuchijima) was 1.56 µg/mL (≈ 4.66 µM). The MIC ([14]; Pseudomonas aeruginosa No. 12, read-out: minimum inhibitory concentration (MIC)) was 1.56 µg/mL (≈ 4.66 µM), the MIC ([15]; IFC3736, Serratia marcescens IFC 3736, read-out: minimum inhibitory concentration (MIC)) was 0.78 µg/mL (≈ 2.33 µM) and the MIC (Proteus morganii Kono; Proteus morganii Kono) was 0.2 µg/mL (≈ 0.597 µM). For the same molecule, the MIC (Proteus mirabilis P-2381; P2381, Proteus mirabilis P-2381, read-out: minimum inhibitory concentration (MIC)) was 0.78 µg/mL (≈ 2.33 µM), the LD50 at 168 h (in vivo) was > 2000 mg/kg and the ED50 (Escherichia coli P-5101 [16]) was 4.8 mg/kg. The ED50 [17] was 18.5 mg/kg and the ED50 [18] was ~100 mg/kg.

In the case of `CCOC(=O)c1cn(CC)c2nc(N3CCNCC3)c(F)cc2c1=O` [ethyl ester of compound 1, Ethyl 1-ethyl-6-fluoro-1,4-dihydro-4-oxo-7-(1-piperazinyl)-1,8-naphthyridine-3-carboxylate], the “therapeutic effect / in vivo antibacterial activity (in words)” value ([19]; systemic infections with Gram-positive and Gram-negative bacteria) is reported as “superior antibacterial activity in vivo”, the ED50 [17] is reported as 21 mg/kg and the ED50 [18] is reported as ~20 mg/kg.

In the case of `CCn1cc(C(=O)O)c(=O)c2ccc(C)nc21` [E, 1-Ethyl-1,4-dihydro-7-methyl-4-oxo-1,8-naphthyridine-3-carboxylic acid], the MIC ([1]; Staphylococcus aureus, 209P) is reported as 100 µg/mL (≈ 431 µM), the MIC [2, 20] is reported as 50 µg/mL (≈ 215 µM) and the MIC [3, 21] is reported as > 200 µg/mL. For the same molecule, the MIC ([4]; Streptococcus pyogenes, 65A) was > 200 µg/mL, the MIC [5, 22] was > 200 µg/mL and the MIC [6, 23] was 12.5 µg/mL (≈ 53.8 µM). It also gave an MIC (Escherichia coli P-5101 [7]; [24]) of 3.13 µg/mL (≈ 13.5 µM), an MIC ([8]; TYPHIMURIUM) of 3.13 µg/mL (≈ 13.5 µM) and an MIC ([9]; ENTERITIDIS) of 3.13 µg/mL (≈ 13.5 µM). The MIC (Shigella flexneri 2a) was 6.25 µg/mL (≈ 26.9 µM), the MIC [11, 25] was 12.5 µg/mL (≈ 53.8 µM) and the MIC [12, 26] was 6.25 µg/mL (≈ 26.9 µM). For the same molecule, the MIC ([13]; Pseudomonas aeruginosa) was 200 µg/mL (≈ 861 µM), the MIC [14, 27] was 200 µg/mL (≈ 861 µM) and the MIC [15, 28] was 6.25 µg/mL (≈ 26.9 µM). The MIC (Proteus morganii Kono) was 6.25 µg/mL (≈ 26.9 µM), the “therapeutic effects in vivo against Gram-negative bacteria, relative to compounds 1, 1' and 2” value ([19]; Gram-negative, particularly Pseudomonas aeruginosa) was “clearly inferior” and the ED50 (Escherichia coli P-5101 [16]) was 29.2 mg/kg. The ED50 [17] was > 200 mg/kg and the ED50 [18] was > 800 mg/kg.

`CC1=C(C(=O)O)N2C(=O)[C@@H](NC(=O)[C@H](N)c3ccccc3)[C@H]2SC1` [J, 7-(D-α-Aminophenylacetamido)desacetoxycephalosporanic acid] gave an MIC ([1]; Staphylococcus aureus, 209P) of 1.56 µg/mL (≈ 4.49 µM), an MIC [2, 20] of 1.56 µg/mL (≈ 4.49 µM) and an MIC [3, 21] of 200 µg/mL (≈ 576 µM). The MIC ([4]; Streptococcus pyogenes, 65A) was 0.78 µg/mL (≈ 2.25 µM), the MIC [5, 22] was 1.56 µg/mL (≈ 4.49 µM) and the MIC [6, 23] was 12.5 µg/mL (≈ 36 µM). For the same molecule, the MIC (Escherichia coli P-5101 [7]; [24]) was 12.5 µg/mL (≈ 36 µM), the MIC (Escherichia coli P-140a; Escherichia coli) was > 200 µg/mL and the MIC ([8]; TYPHIMURIUM) was 6.25 µg/mL (≈ 18 µM). It also gave an MIC ([9]; ENTERITIDIS) of 3.13 µg/mL (≈ 9.01 µM), an MIC (Shigella flexneri 2a) of 12.5 µg/mL (≈ 36 µM) and an MIC [10] of 200 µg/mL (≈ 576 µM). For the same molecule, the MIC [11, 25] was 6.25 µg/mL (≈ 18 µM), the MIC [12, 26] was > 200 µg/mL and the MIC ([13]; Pseudomonas aeruginosa) was > 200 µg/mL. For the same molecule, the MIC [14, 27] was > 200 µg/mL, the MIC [15, 28] was > 200 µg/mL and the MIC (Proteus morganii Kono) was > 200 µg/mL. The MIC (Proteus mirabilis P-2381; Proteus mirabilis, P2381, read-out: minimum inhibitory concentration (MIC)) was 12.5 µg/mL (≈ 36 µM), the ED50 (Escherichia coli P-5101 [16]) was 22.6 mg/kg and the ED50 [17] was > 400 mg/kg. It also gave an ED50 [18] of 12.1 mg/kg.
